Results taken from patent publication US20250346613A1, “BORIC ACID PROTEASOME INHIBITOR AND USE THEREOF” (ARTIVILA BIOPHARMA, priority 2022, published 2025).

How the values were obtained:
[1] = Blood concentration measurement of orally-administrated mice; assay type: in vivo, C57BL/6JNifdc mice; conditions: C57BL/6JNifdc, mouse, plasma, oral, 30 mg/kg
Procedure: The C57BL/6JNifdc mice used in this experiment were provided by Zhejiang Vital River Laboratory Animal Technology Co., Ltd. The compounds were dissolved in DMSO/Solutol/Saline (v/v/v=10/10/80) as a stock solution (3 mg/mL). The stock solution was administrated orally to 6 C57BL/6JNifdc mice at a dose of 30 mg/kg. Blood was collected from the orbital venous plexus at 0.5 h, 1 h, 1.5 h, and 2 h after oral administration.
Approximately 200 μL of blood samples were collected into EDTAK2 Blood Collection tubes and then immediately centrifuged at 10,000 rpm for 5 min. 66 μL of plasma supernatant was added with 198 μL of acetonitrile (Energy), the resulting mixture was shaken on a vortex for 5 min, and then immediately centrifuged at 13000 rpm for 8 min. 200 μL of supernatant was taken for blood compound concentration measurement.
The compound was accurately weighed and dissolved in acetonitrile to a concentration of 100 μg/mL. 50 μL of compound was pipetted and added to 4.95 mL of acetonitrile/water (v/v=3/1) solution to obtain 1000 ng/mL mother liquid. 650 μL of the mother liquid was taken and sequentially diluted with a solution of acetonitrile/water (v/v=3/1) in a 2-fold gradient to obtain standard samples with various concentrations of 500 ng/mL, 250 ng/mL, 125 ng/mL, 62.5 ng/mL, and 31.25 ng/mL.
Standard solutions with concentrations of 1000 ng/mL, 500 ng/mL, 250 ng/mL, 125 ng/mL, 62.5 ng/mL, and 31.25 ng/mL were measured by using LC-MS (LC-MS 2020+LC-2030 Plus, Shimadzu) SIM mode to obtain a calibration curve. The treated blood samples were measured by this method and then subjected to quantitative analysis by using the calibration curve to obtain compound concentration data of each treated blood sample.
The data were exported and the average blood compound concentration at each sampling time was calculated.
Blood compound concentration=compound concentration in treated blood sample×4/molecular weight of the compound. The average blood compound concentration is the average of the compound concentrations in the blood at each sampling time.

[2] = background statement; cannot be used orally; cited from earlier work
[3] = target: T1, β5c subunit of the 20S proteasome (Homo sapiens, UniProt P20618+P28074); assay: Proteasome inhibitory activity, β5c subunit (Raji cells treated with compound, lysed, Suc-LLVY-AMC substrate); assay type: cell-based; conditions: proteasome from Raji cells incubated with compound 4 h
T1 construct: The proteasome tested in the present disclosure was derived from Raji cells; endogenous in cells; host or cells: Raji cells
Text: (§1) In the present disclosure, the fluorescent peptide substrate Ac-Ala-Asn-Trp-AMC (abbreviated as Ac-ANW-AMC) and the […] kit containing a fluorescent peptide substrate Suc-Leu-Leu-Val-Tyr-AMC (abbreviated as Suc-LLVY-AMC) (Promega, Item No. G8660) were used to detect the activities of the β5i subunit and β5c subunit of the 20S proteasome, respectively.
(§2) The proteasome tested in the present disclosure was derived from Raji cells, the fluorescent substrate Ac-ANW-AMC was purchased from Roche company, and other reagents were purchased from Sigma company. The experimental system was divided into two parts of cell lysis system and enzyme reaction system. […] The starting concentration of the compound (inhibitor) was 1 μM. It was diluted in a 3-fold serial dilution to a total of 8 concentrations, that is, the administration concentration can be 1 μM, 0.333 μM, 0.111 μM . . . , respectively, and the specific experimental process was described below.
(§3) Raji cells (1×10^6 cells) cryopreserved in liquid nitrogen were thawed rapidly in a water bath at 37° C. The cell pellet was transferred to a 15 mL centrifuge tube, added with 9 mL of fresh medium (Gibco RPMI1640 added with 10% fetal bovine serum and 1% double antibiotics), centrifuged at 120 g for 5 min, inoculated to 25 mL cell culture flasks, and passaged once every 2-3 days.
(§4) The compound was weighed and dissolved in DMSO to a concentration of 10 mM. The compound was then sequentially diluted to concentrations of 200 μM, 66.67 μM, 22.22 μM, 7.41 μM, 2.47 μM, 0.82 μM, 0.27 μM, and 0.091 μM with fresh medium. Raji cells in a good growth status were inoculated into a 48-well cell culture plate at 7×10^5 cells/mL.
(§5) Raji cells in a good growth status were taken and counted. They were then inoculated to a 48-well cell culture plate at 7×10^5 cells/mL. Each 5 μL of the various concentrations of diluted compounds above were taken and added to the culture plate inoculated with cells, and the lowest concentration of compound was 0 μM. The drug bortezomib (Velcade) and ONX-0914 were used as the positive control compounds. All cells were incubated at 37° C. for 4 h.
(§6) The compound-treated cells were sequentially transferred into 1.5 mL centrifuge tubes, centrifuged at 10000 rpm for 2 min, and the supernatants were removed. The cell pellet was resuspended in 1 mL of PBS, centrifuged at 10000 rpm for 2 min, and the supernatant was removed. Cells were resuspended by adding 100 μL of cell lysate (50 mM Tris of pH 7.5, 150 mM NaCl, 5 mM MgCl2, 5 mM ATP, 1 mM DTT, 0.01% NP-40, 1 mM Digitonin, and Cocktail), placed in an ice bath for 30 min, and centrifuged at 13000 rpm for 10 min.
(§7) 2 mg of fluorescent peptide substrate AC-ANW-AMC was dissolved in 424.7 μL of DMSO to obtain an 8 mM stock solution, and stored at −20° C. The stock solution was diluted 100-fold to a final concentration of […] for use in the reaction system. The fluorescent peptide substrate Suc-LLVY-AMC was prepared according to the instructions of the Promega kit.
(§8) Each 20 μL of the prepared proteasome solution above was added to a 96-well white luciferase microplate and added with 25 μL of AC-ANW-AM substrate buffer solution (50 mM Tris of pH 7.5, 150 mM NaCl, 5 mM MgCl2, 5 mM ATP, 80 uM Ac-ANW-AMC and 1 mM DTT) and 25 μL of Suc-LLVY-AMC substrate buffer solution for 10 min of reaction at 37° C. in the dark. Fluorescence values were read at 345 nm/445 nm by using a fluorence microplate reader.
(§9) The data were exported and the inhibition rate in percentage was calculated according to the following formula: Inhibition rate=(maximum signal value-compound signal value)/(maximum signal value−blank signal value)×100%.
(§10) Where the maximum signal was obtained from cell lysates treated with DMSO only, and the blank signal was obtained from wells containing only lysates.

[4] = target: T2, β5i subunit of the 20S proteasome (Homo sapiens, UniProt P20618+P28062); assay: Proteasome inhibitory activity, β5i subunit (Raji cells treated with compound, lysed, Ac-ANW-AMC substrate); assay type: cell-based; conditions: proteasome from Raji cells incubated with compound 4 h
T2 construct: The proteasome tested in the present disclosure was derived from Raji cells; endogenous in cells; host or cells: Raji cells
Text: as §1, §2, §3, §4, §5, §6, §7, §8, §9, §10

MM.1S cell strain = assay: Inhibitory activity of cell strain (CellTiter-Glo); assay type: cell-based; conditions: Homo sapiens, MM1.S, 72 h incubation
How it was run: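 Cells seeded at 1×10^5 per well in RPMI1640 complete medium for 24 h, then treated 72 h at 37 °C, 5% CO2 with 3-fold dilutions, final 5×10^−7 M down to 2.29×10^−10 M. CellTiter-Glo luminescence; inhibition calculated against DMSO-only cells and medium-only blanks.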

Structure (SMILES)	concentration at 0.5 h ([1]; 0.5 h, read-out: Average blood compound concentration (μM) 0.5 h) [µM]	concentration at 1 h ([1]; 1.0 h, read-out: Average blood compound concentration (μM) 1.0 h) [µM]	concentration at 1.5 h ([1]; 1.5 h, read-out: Average blood compound concentration (μM) 1.5 h) [µM]	concentration at 2 h ([1]; 2.0 h, read-out: Average blood compound concentration (μM) 2.0 h) [µM]	IC50 [3] [nM]	IC50 [4] [nM]	IC50 (MM.1S cell strain) [nM]	bioavailability (oral) [2]
CC(C)C[C@H](NC(=O)[C@H](Cc1ccccc1)NC(=O)c1cnccn1)B(O)O [Bortezomib, bortezomib, reference compound]	2	1.3	1	0.9	–	–	–	low bioavailability
COc1cccc(CNC(=O)C(CC2CCCCC2)C(=O)N[C@@H](Cc2ccc(C)cc2)B(O)O)c1 (stereo partly drawn) [Example 83, ((1R)-1-(2-(cyclohexylmethyl)-3-((3-methoxybenzyl)amino)-3-oxopropionamido)-2-(p-tolyl)ethyl)boric acid]	–	–	–	–	50 to 200	≤ 50	> 500	–
COc1cccc(CNC(=O)C(C(=O)N[C@@H](Cc2ccc(C)cc2)B(O)O)C(C)C)c1 (stereo partly drawn) [Example 87, ((1R)-1-(2-((3-methoxybenzyl)carbamoyl)-3-methylbutanamido)-2-(p-tolyl)ethyl)boric acid]	–	–	–	–	≤ 50	≤ 50	≤ 50	–
Cc1ccc(C[C@H](NC(=O)C(C(=O)NCc2ccc(Cl)cc2Cl)C(C)C)B(O)O)cc1 (stereo partly drawn) [Example 88, ((1R)-1-(2-((2,4-dichlorobenzyl)carbamoyl)-3-methylbutanamido)-2-(p-tolyl)ethyl)boric acid]	–	–	–	–	50 to 200	≤ 50	50 to 200	–
CC(C)C(C(=O)NCc1ccc(Cl)cc1Cl)C(=O)N[C@@H](Cc1coc2ccccc12)B(O)O (stereo partly drawn) [Example 89, ((1R)-2-(benzofuran-3-yl)-1-(2-((2,4-dichlorobenzyl)carbamoyl)-3-methylbutanamido)ethyl)boric acid]	–	–	–	–	≤ 50	≤ 50	≤ 50	–
Cc1ccc(C[C@H](NC(=O)C(Cc2ccccc2)C(=O)NCc2ccc3[nH]ccc3c2)B(O)O)cc1 (stereo partly drawn) [Example 90, ((1R)-1-(3-(((1H-indol-5-yl)methyl)amino)-2-benzyl-3-oxopropionamido)-2-(p-tolyl)ethyl)boric acid]	–	–	–	–	≤ 50	≤ 50	≤ 50	–
O=C(NCc1ccc2[nH]ccc2c1)C(Cc1ccccc1)C(=O)N[C@@H](Cc1coc2ccccc12)B(O)O (stereo partly drawn) [Example 91, ((1R)-1-(3-(((1H-indol-5-yl)methyl)amino)-2-benzyl-3-oxopropionamido)-2-(benzofuran-3-yl)ethyl)boric acid]	–	–	–	–	50 to 200	≤ 50	≤ 50	–
Cc1ccc(C[C@H](NC(=O)C(C)C(=O)NCc2cccc(C(F)(F)F)c2)B(O)O)cc1 (stereo partly drawn) [Example 92, ((1R)-1-(2-methyl-3-oxo-3-((3-(trifluoromethyl)benzyl)amino)propionamido)-2-(p-tolyl)ethyl)boric acid]	–	–	–	–	≤ 50	≤ 50	≤ 50	–

Second part, led by results:

concentration at 0.5 h ([1]; 0.5 h, read-out: Average blood compound concentration (μM) 0.5 h) [µM]	concentration at 1 h ([1]; 1.0 h, read-out: Average blood compound concentration (μM) 1.0 h) [µM]	concentration at 1.5 h ([1]; 1.5 h, read-out: Average blood compound concentration (μM) 1.5 h) [µM]	concentration at 2 h ([1]; 2.0 h, read-out: Average blood compound concentration (μM) 2.0 h) [µM]	IC50 [3] [nM]	IC50 [4] [nM]	IC50 (MM.1S cell strain) [nM]	Structure (SMILES)	bioavailability (oral) [2]
–	–	–	–	≤ 50	≤ 50	≤ 50	CC(C(=O)NCc1cccc(OC(F)(F)F)c1)C(=O)N[C@@H](Cc1coc2ccccc12)B(O)O (stereo partly drawn) [Example 73, ((1R)-2-(benzofuran-3-yl)-1-(2-methyl-3-oxo-3-((3-(trifluoromethoxy)benzyl)amino)propionamido)ethyl)boric acid]	–
–	–	–	–	≤ 50	≤ 50	≤ 50	COc1cccc(CNC(=O)C(C(=O)N[C@@H](Cc2coc3ccccc23)B(O)O)C(C)C)c1 (stereo partly drawn) [Example 75, ((1R)-2-(benzofuran-3-yl)-1-(2-((3-methoxybenzyl)carbamoyl)-3-methylbutanamido)ethyl)boric acid]	–
–	–	–	–	≤ 50	≤ 50	≤ 50	CC(C(=O)NCc1cccc(C(F)(F)F)c1)C(=O)N[C@@H](Cc1coc2ccccc12)B(O)O (stereo partly drawn) [Example 77, ((1R)-2-(benzofuran-3-yl)-1-(2-methyl-3-oxo-3-((3-(trifluoromethyl)benzyl)amino)propionamido)ethyl)boric acid]	–
–	–	–	–	≤ 50	≤ 50	≤ 50	COc1cccc(CNC(=O)C(CC2CC2)C(=O)N[C@@H](Cc2ccc(C)cc2)B(O)O)c1 (stereo partly drawn) [Example 80, ((1R)-1-(2-(cyclopropylmethyl)-3-((3-methoxybenzyl)amino)-3-oxopropionamido)-2-(p-tolyl)ethyl)boric acid]	–
–	–	–	–	≤ 50	≤ 50	≤ 50	COc1cccc(CNC(=O)C(CC2CC2)C(=O)N[C@@H](Cc2coc3ccccc23)B(O)O)c1 (stereo partly drawn) [Example 81, ((1R)-2-(benzofuran-3-yl)-1-(2-(cyclopropylmethyl)-3-((3-methoxybenzyl)amino)-3-oxopropionamido)ethyl)boric acid]	–
–	–	–	–	≤ 50	≤ 50	≤ 50	COc1cccc(CNC(=O)C(CC2CCCCC2)C(=O)N[C@@H](Cc2coc3ccccc23)B(O)O)c1 (stereo partly drawn) [Example 84, ((1R)-2-(benzofuran-3-yl)-1-(2-(cyclohexylmethyl)-3-((3-methoxybenzyl)amino)-3-oxopropionamido)ethyl)boroic acid]	–
